Source: patent US6559288B1, “Ninjurin” (Washington University, priority 1996, dated 2003)
Where no end group is shown, it is not given here.

What was measured:
[1] = tested on: ninjurin-expressing Jurkat cell transfectants; assay: Inhibition by synthetic peptides of ninjurin-mediated aggregation of ninjurin-expressing Jurkat cell transfectants; type: cell-based; conditions: for inhibition of ninjurin-mediated adhesion relative to wild type peptide 6: single amino acid substitutions in residues 26 to 37, dose-dependent test
Description: (§1) Cell adhesion assays. […] Aggregation assays were performed using Jurkat cells (Shimizu et al., (1990) Nature 345, 250-253) stably transfected with pCMV-ninjurin or pCMVneo (nonrecombinant control). The cells were washed twice with RPMI 1640 containing 5 mM Hepes buffer, suspended to a concentration of 2×10^6 cells/ml in RPMI1640 with 10% FCS, and 100 μl of the cell suspension were added to each well of a flat-bottomed 96-well microtiter plate. The formation of aggregates was examined after 1 hr using phase contrast microscopy. […] The ninjurin positive cells were stained red with 1 mM CMTMR (5-(and-6)-(((4-chloromethyl)benzoyl)amino) tetramethylrhodamine) and control cells were stained green with 1 mM CMFTA (5-chloromethylfluoresceindiacetate) as described in the manufacturer's protocol (Molecular Probes). The cells were resuspended to 1×10^6 cells/ml, and 3 ml of the mixed cell suspension was allowed to form aggregates in 6-well culture plates. The composition of the aggregates was monitored by fluorescence microscopy.
To directly investigate whether the N-terminal extracellular hydrophilic region is responsible for the observed homophilic adhesion, partially overlapping synthetic peptides whose sequences collectively encompass the entire predicted ninjurin extracellular domain were tested for their ability to inhibit the ninjurin-mediated adhesion. Aggregation assays with the ninjurin-expressing Jurkat cell transfectants were performed, and the degree of aggregation was examined after 60 minutes by measuring the number of cells incorporated in aggregates. Peptide 2 inhibited aggregation at a concentration of 0.1 mg/ml, and aggregation was completely abolished at concentrations above 1 mg/ml. In constrast, peptides 1 and 4 had no effect on aggregation at either of these concentrations.
To further delimit the site of interaction, an additional 4 peptides (peptides 5 through 8) were tested for their ability to inhibit ninjurin-mediated aggregation (Data not shown). […] To identify the amino acids most critical for ninjurin-mediated adhesion, peptides (9-15) stretching from residue 26 to 37, each containing single amino acid mutations, were tested in the aggregation assay. The ability of each of these peptides to inhibit ninjurin-mediated adhesion in a dose-dependent manner was examined. The seven residues between prolines 27 and 35 (P27 and P35) were most important.

Jurkat cells = assay: Aggregation assay with Jurkat cells stably transfected with pCMV-ninjurin; type: cell-based
Description: as §1
Ninjurin mutants fail to support aggregation. […] To investigate these possibilities, Jurkat cell lines expressing ninjurin molecules containing a double mutation (Arg28 to Asn and Asn29 to Ala) in the ninjurin adhesion motif was generated. […]

DRG neurons = assay: DRG neuron/CHO cell co-culture neurite outgrowth; type: cell-based, rat; conditions: for inhibition of the neurite outgrowth promoting effect of ninjurin: peptides 0.5 mg/ml, E17 rat DRG neurons on CHO cells expressing ninjurin
Description: Cell culture and transfection. Chinese hamster ovary (CHO) cells were cultured in F-12 medium supplemented with 10% fetal calf serum (FCS). T cell leukemia cells (Jurkat) were grown in RPMI 1640 with 10% FCS. The expression vector pCMV-ninjurin was constructed by inserting the ninjurin cDNA into the plasmid pCMVneo (Brewer, C. B. (1994). Methods in Cell Biol. 43, 233-245). The pCMVneo or pCMV-ninjurin plasmids was transfected into CHO cells via calcium phosphate precipitation and into Jurkat cells via electroporation. Stable transfectants were selected by growth in medium containing G418 (400 μg/ml) and individual clones were isolated by limiting dilution. […] Primary cultures of neurons from dorsal root ganglia (DRG) were prepared from E17 rat embryos as previously described (Eichler et al., (1989) Brain Res 482, 340-346). Dissociated neurons were plated on confluent monolayers of either control CHO cells or CHO cell expressing ninjurin in 24-well plates. Cultures were grown in a medium which consists of 90% Eagles minimal essential medium (Gibco), 10% FCS, 20 μg/ml each of fluoro-deoxyuridine and uridine, and 50 ng/ml mouse NGF (gift from E. Johnson, Washington U.). Six hr after plating, the cells were fixed with 4% paraformaldehyde in PBS, and immunohistochemistry using anti-neurofilament H antibodies was performed. Following previously established criteria (Gennarini et al., (1991) Neuron 6, 595-606), approximately 50 neurites were chosen for measurement which each emerged from a single distinguishable cell body, were longer than the diameter of the neuronal cell body, and were identifiable over their entire length. The length of each neurite was measured after tracing them from the photomicrographs onto grided (2 mm) transparency film. Statistical analysis was performed using Sigma Plot (version 3.0). […]
Ninjurin-stimulated neurite outgrowth is mediated through the adhesion motif. […] The neuronal cultures were treated with peptides (0.5 mg/ml) corresponding to either the native or mutant sequences of the ninjurin adhesion motif, and neurite extension was monitored.

[2] = biological target: the molecule itself; assay: aggregation assay, Jurkat cells stably transfected with pCMV-ninjurin against pCMVneo control
Description: as §1, with “250–253)” for “250-253)”, “2 ×10^6” for “2×10^6”, “µl” for “μl”, “1 ×10^6” for “1×10^6”

CHO cells = assay: Aggregation assay with ninjurin transfected CHO cells; type: cell-based, Chinese hamster; conditions: counted at 15 min intervals, 37° C.
Description: For aggregation experiments using CHO cells, cells (ninjurin transfected and control) were harvested from confluent plates by treatment with trypsin, washed with F-12 medium, and resuspended at 1×10^6 cells/ml in F-12 with 10% FCS. Aggregation assays were performed on a rotary shaker at 80 rpm. Quantitation of aggregate formation was monitored at 15 min intervals by counting the number of particles using a hemocytometer (Takeichi, M. (1977). J. Cell. Biol. 75, 464-474). The extent of the aggregate formation is inversely proportional to the number of particles, and was determined by calculating an index Nt/No, where Nt and No were the total particle numbers at incubation times t and 0, respectively (Takeichi, 1977). All of the aggregation experiments were performed at 37° C.

[3] = ninjurin-expressing Jurkat transfectants, aggregation examined after 60 minutes

13: residues 26 to 37 with substitution of Arg32 for Asn32 (SEQ ID NO:18) (PPRWGLNNRPIN; Rat) [Peptide 13]
inhibition of ninjurin-mediated adhesion relative to wild type peptide 6 [1]: less active

O=C(O)CN(CCN(CC(=O)O)CC(=O)O)CC(=O)O [EDTA, reference compound]
aggregate formation in the presence of EDTA (Jurkat cells; ninjurin-expressing Jurkat cells, 1 mM EDTA): no aggregates were detected

Peptide 14: residues 26 to 37 with substitution of Asn33 for Leu33 (SEQ ID NO:19) (PPRWGLRLRPIN; Rat)
inhibition of ninjurin-mediated adhesion relative to wild type peptide 6 [1]: more effective
inhibition of ninjurin-mediated adhesion relative to wild type peptide 6 ([1]; listed as Asn-33 to Leu33): greater inhibitory activity than wild type

11: residues 26 to 37 with substitution of Gly29 to Ala29 (SEQ ID NO:16) (PPRWALRNRPIN; Rat) [Peptide 11]
inhibition of ninjurin-mediated adhesion relative to wild type peptide 6 [1]: did not exhibit altered inhibition

peptide containing a mutation in this sequence: peptide with a mutant sequence of the ninjurin adhesion motif; which mutation is not stated (PPRWGLRNRPIN; Rat)
inhibition of the neurite outgrowth promoting effect of ninjurin (DRG neurons): no significant inhibitory effect

9: residues 26 to 37 with substitution of Arg28 to Asn28 (SEQ ID NO:14) (PPNWGLRNRPIN; Rat) [Peptide 9]
inhibition of ninjurin-mediated adhesion relative to wild type peptide 6 [1]: less active

15: residues 26 to 37 with substitution of Arg34 for Asn34 (SEQ ID NO:20) (PPRWGLRNNPIN; Rat) [Peptide 15]
inhibition of ninjurin-mediated adhesion relative to wild type peptide 6 [1]: less active

12: residues 26 to 37 with substitution of Leu31 to Asn31 (SEQ ID NO:17) (PPRWGNRNRPIN; Rat) [Peptide 12]
inhibition of ninjurin-mediated adhesion relative to wild type peptide 6 [1]: did not exhibit altered inhibition

PPRWGLRNRPIN [Peptide 6]
inhibitory activity on ninjurin-mediated aggregation compared with other peptides [1]: comparable to peptides 2 or 3
concentration at which aggregation was completely abolished [1, 3]: above 2 mg/ml
concentration at which aggregation was inhibited [1, 3]: higher than 0.4 mg/ml
inhibition of the neurite outgrowth promoting effect of ninjurin (DRG neurons): inhibited

10: residues 26 to 37 with substitution of Trp29 for Ala29 (SEQ ID NO:15) (PPRAGLRNRPIN; Rat) [Peptide 10]
inhibition of ninjurin-mediated adhesion relative to wild type peptide 6 [1]: less active

B1: rat ninjurin (other)
chain: MDPGTEEYELNGDLRPGSPGSPDASPPRWGLRNRPINVNHYANKKSAAESMLDIALLMANASQLKAVVEQGNEFAFFVPLVVLISISLVLQIGVGVLLIFLVKYDLNNPAKHAKLDFLNNLATGLVFIIVVVNIFITAFGVQKPVMDVAPRQ
notes: Full-length rat ninjurin (152 amino acids) expressed from pCMV-ninjurin in stably transfected Jurkat or CHO cells; In protein blots and immunoprecipitations it came from cell or tissue lysates; also called rat ninjurin 1; Nerve Injury Induced protein
binding result [2]: binds

B2: ninjurin: Nerve Injury Induced protein, 152 amino acids, rat (SEQ ID NO:4), expressed on transfected cells (protein)
chain: B1 chain
modifications: Rat
average neurite length (DRG neurons; neurons grown for 6 hr on CHO cells expressing ninjurin, approximately 50 neurons): 569±134 μm
aggregate formation (Jurkat cells; transfected Jurkat cells, after 1 hr): formation of large aggregates
number of particles (aggregate formation) (CHO cells): decrease in the number of particles with time
